Measured values published in patent publication US20260216346A1, “COMPOUND, NANOPARTICLES, MEDICINE, AND METHOD FOR PRODUCING NANOPARTICLES” (priority 2022, published 2026).
Entries after “also recorded” stand apart in the source; their conditions may differ.

What was measured:
[1] = Particle diameter of nanoparticles by SEM and DLS; type: physicochemical; settings: aqueous dispersion liquid, 0.05 mM
Method: 100 μL of a dimethyl sulfoxide solution of compound (1-1), prepared at 5 mM, was injected into 10 mL of water at room temperature using a syringe, and the mixture was stirred at 1,500 rpm for 2 seconds to obtain an aqueous dispersion liquid of nanoparticles. The final concentration of compound (1-1) in the aqueous dispersion liquid of the nanoparticles was 0.05 mM. It was confirmed by SEM and DLS that a particle diameter thereof was approximately 100 nm. […] A ClogP of compound (1-1) was 5.92.

[2] = test system: human breast cancer cell line MCF-7; assay: In vitro activity test: cell viability, Cell Counting Kit-8; type: cell-based; settings: nanoparticle dispersion, 0.04 to 10 µM (in terms of SN-38), 48 hours, FIG. 2
Method: A human breast cancer cell line MCF-7 was suspended in Dulbecco's modified Eagle's medium (DMEM) to which 10% fetal bovine serum (FBS) was added, thereby preparing a cell suspension of 2×10^5 cells/mL. The above-described cell suspension was seeded on a 96-well plate at 100 μL per well. The next day, the aqueous dispersion liquid of the nanoparticles of compound (1-1), the aqueous dispersion liquid of the nanoparticles of compound (2-1), or the aqueous dispersion liquid of the nanoparticles of SN-38, prepared as described above, was added to the MCF-7 cell culture solution so that the concentration thereof was 0.04 to 10 µM (in terms of SN-38). Thereafter, the cells were cultured at 37° C. and 5% CO2 for 48 hours. Thereafter, cell viability was measured by a colorimetric method using Cell Counting Kit-8 (manufactured by DOJINDO LABORATORIES.) and a microplate reader.

[3] = Drug release test in PBS under reduced dithiothreitol treatment (1); type: physicochemical; settings: nanoparticles 5 μM, PBS (-) pH 7.4 with 10 mM reduced DTT, 37° C., 1 hour or 24 hours, HPLC
Method: In the present test, the release of SN-38 from compound (1-1) and compound (2-1) in PBS to which reduced DTT was added was evaluated.
A solution was prepared by adding an aqueous dispersion liquid (5 μM, 500 μL) of nanoparticles of compound (1-1) or an aqueous dispersion liquid (5 μM, 500 μL) of nanoparticles of compound (2-1) to 500 µL of PBS (-) to which 10 mM of reduced dithiothreitol (DTT) had been added. “PBS (-)” used hereinafter is phosphate-buffered saline (pH: 7.4) containing NaCl (137 mM), KCl (2.7 mM), Na2HPO4 (10 mM), and KH2PO4 (1.76 mM).
The above-described reaction solution was incubated at 37° C. for 1 hour or 24 hours. 200 μL of the reaction solution after incubation was collected. The collected reaction solution was mixed with 800 μL of a 3% acetic acid solution of acetonitrile/methanol (1/1). The obtained mixed solution was analyzed by high-performance liquid chromatography (detection wavelength: 365 nm) as an analysis target sample.

[4] = Drug release test in PBS under reduced glutathione treatment; type: physicochemical; settings: nanoparticles 50 μM, PBS(−)/EtOH (7/3) pH 7.4 with 10 mM reduced GSH, 37° C., 1, 6, 24 or 48 hours, HPLC
Method: In the present test, the release of SN-38 from compound (1-1) and compounds (2-1) to (2-3) in PBS to which the reduced GSH was added was evaluated.
A reaction solution was prepared by adding the aqueous dispersion liquid (50 μM, 500 μL) of the nanoparticles of compound (1-1) or the aqueous dispersion liquid (50 μM, 500 μL) of the nanoparticles of any one of compounds (2-1) to (2-3) to 500 μL of PBS(−)/EtOH (7/3) (pH: 7.4) to which 10 mM of reduced glutathione (GSH) had been added.
The above-described reaction solution was incubated at 37° C. for 1 hour, 6 hours, 24 hours, or 48 hours. 200 μL of the reaction solution was collected after the incubation. The collected reaction solution was mixed with 800 μL of a 3% acetic acid solution of acetonitrile/methanol (1/1). The obtained mixed solution was analyzed by high-performance liquid chromatography (detection wavelength: 365 nm) as an analysis target sample.

For `CCc1c2c(nc3ccc(OC(=O)C(C)(C)CCSSCCC(C)(C)C(=O)Oc4ccc5nc6c(c(CC)c5c4)Cn4c-6cc5c(c4=O)COC(=O)[C@]5(O)CC)cc13)-c1cc3c(c(=O)n1C2)COC(=O)[C@]3(O)CC` [Compound (1-1)], the “particle diameter of nanoparticles” value [1] was “approximately 100 nm”, the “cell viability of MCF-7” value [2] was “higher cell viability of MCF-7 compared with SN-38; also recorded: lower than that of compound (2-1)” and the “release of SN-38” value [3] was “SN-38 was released”. For the same compound, the “release of SN-38” value [4] was “compound (1-1) was reduced and SN-38 was increased with the passage of time”.
